Values quoted from earlier work, collected in US20160206673A1, “Composition and Method for Improving Sexual Performance” (priority 2015, published 2016).

How the values were obtained:
[1] = test system: men with erectile dysfunction; details: background evidence
[2] = test system: men with erectile dysfunction; details: oral medications

Row | SMILES | effect on sexual function / erectile dysfunction [1] | side effects / safety [1] | duration of erection helping effects [2]
1 | N=C(N)NCCC[C@H](N)C(=O)O [L-arginine] | improves erectile dysfunction | nausea, cramps and diarrhea | 
2 | COC(=O)[C@@H]1[C@H]2C[C@H]3c4[nH]c5ccccc5c4CCN3C[C@@H]2CC[C@@H]1O [Yohimbine] | can improve sexual dysfunction associated with a drug used to treat depression | increased blood pressure, fast or irregular heartbeat, and anxiety | 
3 | C[C@]12CC[C@H](O)CC1=CC[C@@H]1[C@@H]2CC[C@]2(C)C(=O)CC[C@@H]12 [DHEA, dehydroepiandrosterone] | increases libido in women and helps erectile dysfunction in men |  | 
4 | CCCc1nn(C)c2c(=O)[nH]c(-c3cc(S(=O)(=O)N4CCN(C)CC4)ccc3OCC)nc12 [sildenafil] |  |  | up to eight
